The results in this text go back to patent publication US4994450A, “Azacyclic compounds and their use as analgesic agents” (Dr. Lo. Zambeletti S.p.A., priority 1988, dated 1991).

Test [1] relates to mice. Briefly: Tail-flick test in mice. Type of test: in vivo, mouse (male Charles River, Swiss Strain). The following applies: subcutaneous, 30 min pretreatment. As to the method:
(B) Tail-flick test in mice
The methodology employed is based on that described by D'Amour and Smith, J. Pharmacol. Exp. Ther. 72. 74/1941.
Male Charles River mice (Swiss Strain), 22-34g body weight were used. Animals were allowed food and water ad libitum and were randomized into groups of 10 prior to experimentation.
Test compounds were dissolved in either distilled water or distilled water plus 0.1 M AMS and administered by the subcutaneous route in a final volume of 10 ml/Kg. Control animals received 10 ml/kg of the appropriate vehicle alone. Following a pretreatment period of 30 min., the mice were again placed under the heat source and the reaction tine re-determined.
Percentage quantal protection was determined as the number of mice in which the reaction time was doubled compared to pretreatment values, expressed as a percentage of the total number of mice in the group.

The test system of test [2] is mice. Nature of the test: P-phenylquinone-induced abdominal writhing test in mice. Format: in vivo, mouse (male Charles River, Swiss Strain). The following applies: Mus musculus, sc; subcutaneous, 20 min pretreatment, p-phenylquinone 2 mg/Kg i.p. As for the experimental part:
(A) P-phenylquinone-induced abdominal writing test in mice
The methodology employed is based on that described by Sigmund et al, Proc. Soc. Exptl. Biol. 95, 729/1957, modified by Milne and Twomey, Agents and Actions, 10, 31/1980.
Male Charles River mice (Swiss Strain), 25-36g body weight, were used. Animals were allowed food and water ad libitum and were randomized into groups of 10 prior to experimentation. Test compounds were dissolved in either distilled water or distilled water plus 0.1 M AMS, and administered by the subcutaneous route in a final volume of 10 ml/Kg. Control animals received 10 ml/Kg of the appropriate vehicle alone. Following a pretreatment period of 20 min., mice were injected intraperitoneally with p-phenylquinone, 2 mg/Kg at 37° C. in a final volume of […]. […] During this period the number of abdominal writhing responses per animal were recorded where writhing consists of an intermittent contraction of the abdomen associated with hind leg extension.
The degree of antinociceptive protection afforded by the test compound was determined as the mean number of writhing responses observed in the treated group (T) expressed as a percentage of the mean number of writhing responses in the control group (C) according to the following formula:
[1-(T/C]×100%=% graded protection

Test [3] deals with T1, Kappa opiate receptor (spinal cord) (Cavia porcellus, UniProt P41144).
T1 construct: spinal cord kappa-receptors; from tissue
T1 sequence (P41144 whole entry): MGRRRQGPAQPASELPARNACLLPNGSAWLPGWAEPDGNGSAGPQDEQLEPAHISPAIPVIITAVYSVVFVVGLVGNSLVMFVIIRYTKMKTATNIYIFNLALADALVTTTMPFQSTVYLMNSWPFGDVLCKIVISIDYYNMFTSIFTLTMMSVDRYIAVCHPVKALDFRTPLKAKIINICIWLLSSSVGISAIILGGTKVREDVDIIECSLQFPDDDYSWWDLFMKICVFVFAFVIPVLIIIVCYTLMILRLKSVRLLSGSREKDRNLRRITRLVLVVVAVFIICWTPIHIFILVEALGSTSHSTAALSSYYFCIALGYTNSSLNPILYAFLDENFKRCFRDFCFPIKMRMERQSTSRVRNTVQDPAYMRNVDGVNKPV
Briefly: Opiate receptor binding, kappa (spinal cord). As for the experimental part:
The binding to the K-sites is performed using ^3 H-Ethyl Ketocyclazocine, a non-selective benzomorphan compound which binds to μ, δ and K-sites, in the presence of 100nM of unlabelled DAGO and 100nM of the enkephalin analogue [DAla^2 -DLeu^5 ]Enkephalin (DADLE), to prevent μ and δ binding respectively.
Final homogenate with solutions of the cold ligand and of the labelled ligand is incubated for 40 min. at 25° C., filtered through Whatman GF/C glass filter discs and washed.
(§1) The radioactivity bound to the filters is counted by liquid scintillation spectrophotometry.
(§2) The non-specific binding is determined in the presence of 500nM of the benzomorphan non-selective compound Mr 2266.
(§3) The equilibrium dissociation constant (KD) and the maximum binding capacity (Bmax) are determined from the analysis of saturation curves, while the inhibition constant (Ki) is determined from the analysis of competition experiments (Hill 1910; Scatchard 1949; Cheng and Prusoff 1973; Gillan et al. 1980) Published references are summarised as follows: […]

The target of test [4] is T2, Mu opiate receptor (brain) (Cavia porcellus, UniProt A0ACM8Q262).
T2 construct: [3H]DAGO (DAMGO) displacement
T2 sequence (A0ACM8Q262 1-400): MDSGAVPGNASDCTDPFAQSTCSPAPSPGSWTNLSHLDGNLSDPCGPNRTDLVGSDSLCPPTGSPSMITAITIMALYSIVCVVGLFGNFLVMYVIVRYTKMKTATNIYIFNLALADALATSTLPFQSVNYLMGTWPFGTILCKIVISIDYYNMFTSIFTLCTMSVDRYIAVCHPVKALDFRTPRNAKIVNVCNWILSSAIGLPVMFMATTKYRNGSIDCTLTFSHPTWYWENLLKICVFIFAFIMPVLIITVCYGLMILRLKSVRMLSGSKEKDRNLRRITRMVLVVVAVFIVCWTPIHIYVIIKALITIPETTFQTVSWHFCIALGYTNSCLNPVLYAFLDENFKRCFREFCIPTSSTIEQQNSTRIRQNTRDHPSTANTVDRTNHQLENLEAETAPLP
Nature of the test: Opiate receptor binding, mu (brain). Further details: species or system guinea pig. Conditions: 3H-DAGO, 40 min, 25° C. As to the method: (§4) Radio receptor binding to μ and K sites is performed on fresh guinea pig brain homogenate prepared according to Kosterlitz. (1981).
(§5) Whole brain without cerebellum is homogenized in 50 mM, Tris-buffer (pH 7.4 at 0° C.) and centrifuged at 49,000×g×10 min.
(§6) The pellet is then resuspended in the same buffer, incubated at 37° C. for 45 min. and centrifuged again.
(§7) 1.9 ml of the final homogenate (1:100 in Tris-pH 7.4, 0° C.) is used for the binding assay.
^3 H [D-Ala^2, MePhe^4, Gly-ol^5 ] Enkephalin (^3 H-DAGO), an enkephalin analogue that binds selectively to μ receptor, is added to the biological substrate and incubated at 25° C. for 40 min., filtered through Whatman GF-C and washed with ice-cold Tris-buffer.
The filters are then dryed, solubilized in Filtercount and the radioactivity monitored. Non specific binding is determined in the presence of 10^-6 M Naloxone.
as §3

Test [5] concerns the target T3, Kappa opiate receptor (brain) (Cavia porcellus, UniProt P41144).
T3 construct: performed on fresh guinea pig brain homogenate; from tissue; host or cells: guinea pig whole brain without cerebellum, homogenate
Briefly: Opiate receptor binding, kappa (brain). Further details: species or system guinea pig. As to the method:
as §4, §5, §6, §7
The binding to the K-sites is performed using ^3 H-Ethyl Ketocyclazocine, a non-selective benzomorphan compound which binds to μ, δ and K-sites, in the presence of 100nM of unlabelled DAGO and 100nM of the enkephalin analogue [DAla^2 -DLeu^5 ]Enkephalin (DADLE), to prevent μ and δ binding respectively. […]
as §1, §2, §3

Counter-ions that a name gives are not always drawn.

T3 sequence (P41144 whole entry): as the sequence (P41144 whole entry) above

Regarding `CC(=O)c1ccc(CC(=O)N2CCCC[C@H]2CN2CCCC2)cc1C` [Example 4, (2S)-1-(3-methyl-4-acetylphenyl)acetyl-2-(pyrrolidin-1-yl)methyl-piperidinehydrochloride hydrate], the “MOUSE TAIL-FLICK % Analgesia” value in the test with mice [1] (dose 8.6 mg/kg) amounted to 80%.
For `O=C1CCCc2ccc(CC(=O)N3CCCC[C@H]3CN3CCCC3)cc21` [Example 6, (2S)-1-[1-oxo-3,4-dihydro-(2H)-naphth-7-yl] acetyl-2-(pyrrolidin-1-yl)methyl-piperidine hydrochloride], the “MOUSE TAIL-FLICK % Analgesia” value with mice [1] (dose 10 mg/kg) is listed as 80%.
Regarding `O=C1CCCc2cc(CC(=O)N3CCCCC3CN3CCCC3)ccc21` (stereo not drawn) [Example 1, 1-[1-oxo-3,4,-dihydro-(2H)-naphth-6-yl]acetyl-2-(pyrrolidin-1-yl)methyl-piperidine hydrochloride], the ED50 in the test on mice [2] amounted to 0.235 mg/kg. The figures for the Ki in test [3], in test [4] and in test [5] were 5.24 nM, above 1000 nM and 81.7 nM, respectively. For the same molecule, in the test on mice [1] (dose 0.550 mg/kg), the “MOUSE TAIL-FLICK % Analgesia” value is recorded as 50%.
`O=C1CCCc2cc(CC(=O)N3CCCC[C@H]3CN3CCCC3)ccc21` [Example 2, (2S)-1-[1-oxo-3,4,-dihydro-(2H)-naphth-6-yl]acetyl-2-(pyrrolidin-1-yl)methyl-piperidine hydrochloride]: the ED50 in the test with mice [2] was found to be 0.138 mg/kg. Further, the Ki in test [3] was 2.21 nM; in test [4], 2980 nM; in test [5], 49 nM. Further, in the test with mice [1] (dose 0.233 mg/kg), the “MOUSE TAIL-FLICK % Analgesia” value came out at 50%.
